Values quoted from earlier work in US20230149510A1, “METHOD FOR ALLEVIATING ARTHRITIS USING EPIDERMAL GROWTH FACTOR” (Lovin BioMed Co., Ltd., priority 2021, published 2023).

Legend:
[1] = tested on: collagen-induced arthritis; conditions: Swanson C. D. et al. (2012); cited from earlier work
OA = conditions: Sun H. et al. (2018); cited from earlier work

SMILES | effect on collagen-induced arthritis [1] | effect on symptoms in mice with OA (OA)
C#Cc1cccc(Nc2ncnc3cc(OCCOC)c(OCCOC)cc23)c1 [erlotinib] | can alleviate collagen-induced arthritis | –
COc1cc2ncnc(Nc3ccc(F)c(Cl)c3)c2cc1OCCCN1CCOCC1 [gefitinib] | – | can improve symptoms in mice with OA
